Test results published in US12054509B2, “Antimicrobial compounds, compositions, and uses thereof” (Lakewood Amedex, Inc., priority 2017, dated 2024).

How the values were obtained:
[1] = Pow (partition coefficient); type: physicochemical
[2] = pH of 20 mg/mL (2%) aqueous solution; type: physicochemical; details: 20 mg/mL in DI water
Experimental: pH studies are conducted to show the pH of Nu-8 compared to Bisphosphocin® compounds Nu-2, Nu-4, and Nu-5. 20 mg/mL Nu-2 solution is prepared by diluting 2 mL of 250 mg/mL Nu-2 solution with 23 mL DI water. 20 mg/mL Nu-4 and Nu-5 solutions are prepared in the same way. 401.65 mg Nu-8 is weighed in a 5 mL volumetric flask and diluted with DI water to volume. 20 mg/mL Nu-8 solution is prepared by diluting 5 mL of 80.3 mg/mL Nu-8 solution with 15 mL DI water. The pH values of 4 Nu-2, Nu-4, Nu-5, and Nu-8 at 20 mg/mL are measured with a calibrated pH meter. Also shown in TABLE 2 is a summary of other physical properties of the compound of Formula (I) and reference compounds Nu-2, Nu-4, and Nu-5.

E. coli ATCC 25922 = test: Bacterial cytological profiling (Example 6), E. coli; type: cell-based; details: for effect on cell envelope: BCP; for cell membrane permeability: buffered pH 4 or unbuffered LB; for DNA condensation: higher treatment concentrations, buffered pH 4; for cell wall deformations: unbuffered LB;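 as to cell wall deformations: tested at 1 0.5 and 0.25 times MIC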;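 as to effect on cell envelope: tested at 1 0.5 and 0.25 times MIC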
Experimental: (§1) This bacterial cytological profiling (BCP) study uses methods and materials described previously by Nonejuie, P., Burkart, M., Poglianoa, K., Pogiano, J. (2013). Bacterial cytological profiling rapidly identifies the cellular pathways targeted by antibacterial molecules. Proc. Natl. Acad. Sci. U.S.A. 110(40):16169-16174. doi: 10.1073/pnas.1311066110.
(§2) Wild type strains of E. coli ATCC 25922 or P. aeruginosa K2732 are grown in rich media (unbuffered 2× Lysogeny broth [LB]) at 30 C to an OD600˜0.4. These cultures are then split and each sample treated with the appropriate concentration of Nu-8 in unbuffered or buffered LB (final mixture OD600˜0.1). Cells exposed without Nu-8 are buffered to pH 4 with phosphoric acid.
(§3) The BCP is performed in LB media buffered to pH 4. The minimum inhibitory concentration (MIC) is measured for Nu-3, Nu-4, Nu-5, and Nu-8 against each bacterial strain. As one of ordinary skill in the art understands, minimum inhibitory concentrations are the lowest concentration of an antimicrobial that will inhibit the visible growth of a microorganism after overnight incubation. […] Cellular viability is assayed at three time points (5 minutes and 4 and 24 h following the onset of treatment).
(§4) For imaging E. coli, treated cells are stained with 1 μg/Ml FM4-64, 2 μg/mL DAPI, and 0.5 μM SYTOXGreen (Molecular Probes/Invitrogen). P. aeruginosa samples are stained 0.5 μM SYTOX Green, 28 μg/mL DAPI, and 4.5 μg/mL FM 4-64. Cells are transferred to an agarose pad (20% LB, 1% agarose) for imaging as described in Pogliano, J., Osborne, N., Sharp, M. D., Abanes-De Mello, A., Perez, A., Sun, Y.-L. and Pogliano, K. (1999), A vital stain for studying membrane dynamics in bacteria: a novel mechanism controlling septation during Bacillus subtilis sporulation. Molecular Microbiology, 31: 1149-1159. doi:10.1046/j.1365-2958.1999.01255.x.

P. aeruginosa K2732 = test: Bacterial cytological profiling (Example 6), P. aeruginosa; type: cell-based; details: for effect on cell envelope: BCP; for cell membrane permeability: buffered pH 4 or unbuffered LB;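 as to effect on cell envelope: tested at 1 0.5 and 0.25 times MIC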
Experimental: as §1, §2, §3, §4

[3] = test system: Escherichia coli (strain CFT073, TPPS 1041); test: Urinary tract infection model in BALB/c mice, initial efficacy (Example 10); type: in vivo; details: 50 mg/kg transurethral at 24 hr, 60 minutes post-treatment
Text: Female BALB/c mice (20-22 g) ordered from Envigo are acclimated to housing conditions and handled in accordance with Animal Use Protocol (AUP) number TP-08. Animals are fed irradiated Teklad Global 29 18 Rodent Diet and water ad libitum. Mice are housed 6/cage in static cages with irradiated ⅛″ Teklad corn cobbedding 7902 inside bioBubble® clean rooms that provide H.E.P.A filtered air into the bubble environment at 100 complete air changes per hour. The environment is controlled to a temperature range of 74°±4° F. and a humidity range of 30-70%. All procedures carried out in this experiment are conducted in compliance with the laws, regulations, and guidelines of the National Institutes of Health and with the approval of the TransPharm Preclinical Solutions Animal Care and Use Committee.
A clinical isolate of Escherichia coli (strain CFT073, TPPS 1041) are procured from the University of Michigan.
The organism is grown overnight at 37° C. in ambient atmosphere on trypticase soy agar plates supplemented with 5% sheep blood cells. The culture is aseptically swabbed and transferred to tubes of trypticase soy broth. The optical density is determined at 600 nm. The culture is diluted to provide an inoculum of approximately 7.5 log10 CFU per mouse in a volume of 30 μL. Instillation of the bacterial challenge constituted time 0 hour for the study. Inoculum counts are estimated before inoculation by optical density and confirmed after inoculation by dilution and back counts.
One hour prior to bacterial challenge, water is removed from animal cages. […]
The primary endpoint used to assess progress of the infection is mean bacterial burden per gram of urinary bladder tissue. […] Colony forming units (CFU) are enumerated and the total bacterial burden per gram of urinary bladder tissue homogenate is calculated.
The geometric mean CFU, along with standard error of the mean (SEM), are calculated using Microsoft Excel and bar charts are prepared for the data using GraphPad Prism v. […]

With `CCCCOP(=O)(O)OCCOCCOP(=O)(O)OCCCC` [Nu-5] the Pow [1] was 0.0480, the “pH (2% solution)” value [2] was 0.93 and the “effect on cell envelope” value (E. coli ATCC 25922) was “affect the cell envelope”. The cell membrane permeability (E. coli ATCC 25922) was “increase cell membrane permeability”, the DNA condensation (E. coli ATCC 25922) was “causes DNA condensation” and the cell wall deformations (E. coli ATCC 25922) was “cause cell wall deformations”. The “effect on cell envelope” value (P. aeruginosa K2732) was “affect the cell envelope” and the cell membrane permeability (P. aeruginosa K2732) was “increase cell membrane permeability”.
With `CCCCOP(=O)(O)OC[C@H]1O[C@@H](n2cc(C)c(=O)[nH]c2=O)C[C@H]1OP(=O)(O)OCCCC` [Nu-4] the Pow [1] was 0.0592, the “pH (2% solution)” value [2] was 0.94 and the “effect on cell envelope” value (E. coli ATCC 25922) was “affect the cell envelope”. For the same compound, the cell membrane permeability (E. coli ATCC 25922) was “increase cell membrane permeability”, the DNA condensation (E. coli ATCC 25922) was “causes DNA condensation” and the cell wall deformations (E. coli ATCC 25922) was “cause cell wall deformations”. For the same compound, the “effect on cell envelope” value (P. aeruginosa K2732) was “affect the cell envelope” and the cell membrane permeability (P. aeruginosa K2732) was “increase cell membrane permeability”.
With `COC1[C@@H](OP(=O)(O)OCCCCO)[C@@H](COP(=O)(O)OCCCCO)O[C@H]1n1ccc(=O)[nH]c1=O` (stereo partly shown) [Nu-2] the Pow [1] was 0.0407 and the “pH (2% solution)” value [2] was 0.99.
With gentamicin [reference compound] the “average bladder CFU burden” value [3] was 6.1 log10 CFU.
